Laboratory results from article PMC10899790, “A bromodomain-independent mechanism of gene regulation by the BET inhibitor JQ1: direct activation of nuclear receptor PXR” (Nucleic Acids Research, 2023).
Entries after “also recorded” stand apart in the source; their conditions may differ.

Columns and labels:
[1] = target: T1, mouse PXR (mPXR) (Mus musculus, UniProt O54915); conditions: mPXR-transfected HepG2, 24 h; PCN as 100% control
T1 sequence (O54915 1-431): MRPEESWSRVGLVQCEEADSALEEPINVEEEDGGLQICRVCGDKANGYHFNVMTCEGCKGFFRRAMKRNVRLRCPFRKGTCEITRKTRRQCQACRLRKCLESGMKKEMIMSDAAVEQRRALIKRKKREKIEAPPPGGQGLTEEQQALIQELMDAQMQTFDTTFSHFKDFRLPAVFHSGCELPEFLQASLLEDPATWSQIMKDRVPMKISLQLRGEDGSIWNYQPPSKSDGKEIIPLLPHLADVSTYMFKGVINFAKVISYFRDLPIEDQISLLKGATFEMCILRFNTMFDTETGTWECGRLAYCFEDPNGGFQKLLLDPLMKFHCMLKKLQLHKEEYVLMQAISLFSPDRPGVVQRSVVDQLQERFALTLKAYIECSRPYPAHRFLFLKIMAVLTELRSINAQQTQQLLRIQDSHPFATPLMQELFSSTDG
Method: Assays were performed similarly as previously described with minor modifications ([30–32]). HepG2 cells (7.5 × 10^5/well) were plated in six-well tissue culture-treated plates. The following day, cells were co-transfected with pGL3-CYP3A4-luc (2 μg/well), pRL-CMV (200 ng/well) and 100 ng/well of either empty vector (pcDNA3), pcDNA3-FLAG-PXR, pCMV6-mPXR or pGL4.53-PGK-PXR using Lipofectamine 3000 (Thermo Fisher Scientific). Twenty-four hours after transfection, cells were trypsinized and suspended in phenol red-free DMEM (Thermo Fisher Scientific) supplemented with 5% charcoal/dextran-treated FBS (HyClone), and 1 × 10^4 cells/well in 25 μl media were added to white 384-well plates. […] After 24 h, the Dual-Glo Luciferase Assay System (Promega) and EnVision microplate reader (PerkinElmer) were used to measure firefly and Renilla luciferase activities. CMV-driven Renilla luciferase was used as an indicator of general transcriptional modulation by the test compounds and is plotted as fold change (FC) relative to DMSO controls. Assays utilizing pGL4.54[luc2/TK], pGL4.53[luc2/PGK], or pGL4.13[luc2/SV40] were similarly performed and normalized. For the PXR-responsive CYP3A4-luciferase reporter, the measured relative light units (RLU) were normalized for each well using equation (1),
RLUT0901317 represents the measured RLU from wells containing 1 μM T0901317. […]

[2] = target: T2, PXR LBD (Homo sapiens, UniProt O75469); test: TR-FRET PXR LBD SRC-1 recruitment assay; type: biochemical; conditions: percent relative to 10 μM T0901317 and DMSO
T2 construct: GST-PXR LBD protein (cat. # PV4841) were purchased from Thermo Fisher Scientific; purchased Thermo Fisher Scientific PV4841
T2 sequence (O75469 146-433 limits assumed): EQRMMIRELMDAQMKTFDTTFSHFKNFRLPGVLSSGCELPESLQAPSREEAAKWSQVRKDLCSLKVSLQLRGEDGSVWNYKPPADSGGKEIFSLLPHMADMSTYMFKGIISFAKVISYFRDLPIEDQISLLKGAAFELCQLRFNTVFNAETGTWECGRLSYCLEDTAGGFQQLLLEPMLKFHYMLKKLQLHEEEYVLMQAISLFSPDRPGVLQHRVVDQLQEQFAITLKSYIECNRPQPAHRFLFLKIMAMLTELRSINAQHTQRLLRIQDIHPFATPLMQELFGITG
Method: The TR-FRET PXR LBD SRC-1 recruitment assay measures PXR LBD interaction with a fluorescently labeled SRC-1 peptide (Supplementary Figure S1) and was performed as previously described with minor modifications ([23]). […] FAM-SRC-1 peptide solution (15 μl/well, 133.3 nM in assay buffer) was dispensed into 384-well black low-volume assay plates. An Echo 650 Acoustic Liquid Handler then dispensed 60 nl/well of compound stocks or DMSO. […] The plates were shaken at 900 rpm (80 × g) on an IKA MTS 2/4 digital microtiter shaker for 1 min then centrifuged at 1000 rpm (201 × g) for 30 s in an Eppendorf 5810 centrifuge equipped with an A-4-62 swing-bucket rotor. The plates were protected from light exposure and incubated for 1 h at room temperature (RT). After incubation, the TR-FRET signal from each well was collected with a PHERAstar FS Microplate Reader (BMG Labtech). The measured relative fluorescence units (RFU) were normalized for each well using equation (2),

[3] = target: T2, PXR LBD; test: TR-FRET PXR LBD ligand binding assay; conditions: TR-FRET competition with BODIPY FL vindoline
Method: The TR-FRET PXR LBD ligand binding assay measures binding of PXR ligands by competition with a fluorescently labeled ligand (BODIPY FL vindoline) (Supplementary Figure S3) and was performed as previously described with minor modifications ([24]). […] BODIPY FL vindoline (15 μl/well, 133.3 nM in assay buffer) was dispensed into 384-well low-volume black assay plates. An Echo 650 Acoustic Liquid Handler then dispensed 60 nl/well of compound stocks or DMSO.

[4] = test system: PXR; test: RNA induction in HepaRG: PXR RNA (RT-qPCR); type: cell-based, human; conditions: differentiated HepaRG, 24 h; FC relative to DMSO
Method: (§1) Experiments with HepaRG cells were conducted similarly to previously described ([45]), with modifications. HepaRG cells were seeded in collagen-coated 24-well plates at 5 × 10^5 cells/well in HCM. Cells were differentiated for two weeks with HCM containing 2% DMSO. The cells were then treated with the respective chemicals for 24 h in HCM. The final DMSO concentration for the treatment was 0.5%. Total RNA was isolated from cells with Maxwell 16 LEV SimplyRNA Tissue Kits (Promega), and cDNA was generated from 250 ng of RNA with the SuperScript VILO cDNA Synthesis Kit (Thermo Fisher Scientific). Quantitative real-time polymerase chain reaction (RT-qPCR) was conducted with 2 μl of cDNA using TaqMan Fast Advanced Master Mix (Applied Biosystems) in an Applied Biosystems 7500 Fast Real-Time PCR System. TaqMan gene expression assays specific for CYP3A4 (Hs00604506_m1), PXR (Hs01114267_m1), MYC (Hs00153408_m1) and RNA18S (Hs03928990_g1) were purchased from Thermo Fisher Scientific. Fold induction values were calculated according to the 2^−ΔΔCt method, where ΔCt represents the differences in cycle threshold numbers between the target gene and reference gene and ΔΔCt represents the relative change in these differences between the control and treatment groups ([46]). RNA18S was used as the reference gene for relative quantification of all other genes.

[5] = test system: PGK promoter; test: PGK promoter firefly luciferase reporter; type: cell-based, human; conditions: HepG2, 24 h
[6] = test system: CYP3A4; test: RNA induction in HepaRG: CYP3A4 mRNA (RT-qPCR); conditions: differentiated HepaRG, 24 h
Method: as §1

Cc1sc2c(c1C)C(c1ccc(Cl)cc1)=N[C@@H](CC(=O)OC(C)(C)C)c1nnc(C)n1-2 [JQ1, (+)-JQ1]
activation of CYP3A4-luciferase reporter in the presence of mPXR [1]: did not activate the CYP3A4-luciferase reporter in the presence of mPXR
recruitment of SRC-1 peptide to purified PXR LBD [2]: induced SRC-1 recruitment; also recorded: JQ1 > birabresib > CPI-203
binding to purified PXR LBD (binding potency) [3]: comparable to rifampicin in binding potencies; also recorded: JQ1 > birabresib > CPI-203
PXR RNA expression [4]: greatly reduced PXR RNA
PGK promoter-driven luciferase expression [5]: not positively modulated
endogenous CYP3A4 mRNA expression ([6]; FC relative to DMSO): modestly induced CYP3A4 mRNA
endogenous CYP3A4 mRNA expression on co-treatment with SPA70 ([6]; co-treated with SPA70): largely diminished
